Reference: patent EP4786454A1, “HETEROARYL DERIVATIVE AND USE THEREOF” (priority 2023, dated 2025)

Experiments:
[1] = Stability in liver microsomes (monkey); assay type: in vitro ADME, cynomolgus monkeys; conditions: c (cynomolgus monkey liver microsomes), 0.5 mg/mL, read-out: MMS Clint
Description: The purpose of this study was to evaluate the phase I metabolic stability of the assay sample in liver microsomes from CD-1 mice, Sprague-Dawley (SD) rats, beagle dogs, cynomolgus monkeys, and human.
The animal and human liver microsomes used in this assay system were purchased from Xenotech, Corning, or other qualified suppliers.
Preparation of buffer: 73.21 g of potassium phosphate dibasic trihydrate and 10.78 g of potassium dihydrogen phosphate were dissolved in 4000 mL of ultrapure water. The pH of the solution was adjusted to the range of 7.40 ± 0.10 using 10.0% phosphoric acid or 1.00 M potassium hydroxide. Its final concentration was 100 mM.
Preparation of working solutions: An assay sample powder was prepared into a 10.0 mM stock solution with DMSO, and then further diluted with a suitable organic solvent. The control compounds testosterone, diclofenac, and propafenone were prepared into 10.0 mM stock solutions using DMSO, and then further diluted with a suitable organic solvent.
Preparation of liver microsome solution: Microsomes of various species were diluted with 100 mM potassium phosphate buffer to a working solution of 0.56 mg/mL. The final concentration of microsomes in the reaction system was 0.500 mg/mL. Detailed preparation procedures were described in the experimental records.
Preparation of reduced nicotinamide adenine dinucleotide phosphate (NADPH) solution: An appropriate amount of reduced nicotinamide adenine dinucleotide phosphate was dissolved in magnesium chloride solution, and the mixture was shaken to mix well. The final concentrations in the reaction system were 1.00 mM NADPH and 1.00 mM magnesium chloride, respectively. Detailed preparation procedures were described in the experimental records.
Preparation of stop solution: The stop solution was prepared using acetonitrile containing internal standards (tolbutamide and labetalol). The prepared stop solution was stored at 2.0 to 8.0 °C in a refrigerator. Detailed preparation procedures were described in the experimental records. […]

[2] = system: male CD-1 mice; test: Maximal electroshock-induced epilepsy model, behavioral pharmacodynamics; assay type: in vivo; conditions: 5 mg/kg orally, one hour before electrical stimulation
Text: This study used behavioral tests in male CD-1 mice to investigate the effects of test compounds on acute epileptic seizures behavior induced by maximal electroshock.
Male CD-1 mice (25 to 35g) were used as the experimental animals and fed with standard feed (Beijing Vital River Laboratory Animal Technology Co., Ltd.).
After arriving at the animal facility, the experimental animals needed to acclimatize for at least one week. The mice were observed daily for vital signs, and randomly divided into groups according to their body weights one day before the drug administration. One hour before the electrical stimulation, different dosages of the test compound were orally administered to each group. On the day of the assay, the male CD-1 mice in each group were anesthetized locally at the cornea with 2% lidocaine. Then, silver bipolar electrodes were used to electrically stimulate the cornea of the mice with 18 mA, 60 Hz, a pulse width of 0.6 ms, and a stimulation time of 1 s to induce seizures. Subsequently, the latency of seizures and the duration of limb rigidity in mice after the electrical stimulation were observed, and the protection rate from seizures for each group was statistically analyzed.

SMILES | CLint scaled at 1 µM [1] | Protection rate from seizures [2]
CC(C)(C)CC(=O)Nc1nc2c(F)cc(C#N)cn2c1C12CC(C1)C2 [Compound 5] | 15.3 mL/min/kg | –
CC(C)(C)CC(=O)Nc1nc2c(F)cc(C#N)cn2c1C1=CCCC1 [Compound 3] | 129 mL/min/kg | 66.7%
CC(C)(C)CC(=O)Nc1nc2c(F)cc(C#N)cn2c1-c1ccc(OC(F)(F)F)cc1 [Compound 1] | 130 mL/min/kg | 66.7%
